Experimental findings from article PMC5870887 (Bioorganic & medicinal chemistry letters, 2018) are described below.

Some results are limits rather than exact numbers.

The target in the first test is recombinant α-synuclein fibrils (Homo sapiens, UniProt P37840). The test can be described thus: Thioflavin T competitive binding fluorescence assay. As to conditions: Thioflavin T assay Ki, mean ± SD, at least three experiments, NB = no binding was measurable (concentrations up to 10 μM).
As to `COc1cc(-c2nc(-c3ccc4cc(OCCF)ccc4n3)no2)ccn1` [Compound 28, 3-(6-(2-Fluoroethoxy)quinolin-2-yl)-5-(2-methoxypyridin-4-yl)-1,2,4-oxadiazole], the Ki came to 0.015 ± 0.003 µM.

As for `COc1ccc2ccc(/C=C/c3ccccc3)nc2c1` [Compound 3, (E)-7-methoxy-2-styrylquinoline], the Ki was 0.68 ± 0.139 µM.

Turning to `COc1ccc2nc(/C=C/c3ccccc3)ccc2c1` [Compound 2, (E)-6-Methoxy-2-styrylquinoline], the Ki was 0.192 ± 0.001 µM.

Staying with this test, now noted: mean ± SD, at least three experiments, NB = no binding was measurable (concentrations up to 10 μM).
Consider `COc1cccc2ccc(/C=C/c3ccccc3)nc12` [Compound 4, (E)-8-Methoxy-2-styrylquinoline], for which the “Thioflavin T assay Ki” value is recorded as “no binding”.

On to `COc1ccc2nc(/C=C/c3ccncc3Br)ccc2c1` [Compound 16, (E)-2-(2-(3-Bromopyridin-4-yl)vinyl)-6-methoxyquinoline], for which the “Thioflavin T assay Ki” value is listed as “moderate binding”.

As to `COc1ccc2nc(/C=C/c3ccnc(F)c3)ccc2c1` [Compound 11, (E)-2-(2-(2-Fluoropyridin-4-yl)vinyl)-6-methoxyquinoline], the “Thioflavin T assay Ki” value is reported as “no binding”.

As for `COc1ccc2nc(/C=C/c3ccncc3Cl)ccc2c1` [Compound 15, (E)-2-(2-(3-Chloropyridin-4-yl)vinyl)-6-methoxyquinoline], the “Thioflavin T assay Ki” value is given as “no binding”.

In the case of `COc1cccc2nc(/C=C/c3ccccc3)ccc12` [Compound 1, (E)-5-Methoxy-2-styrylquinoline], the “Thioflavin T assay Ki” value was “no binding”.

Staying with this test, now noted: read-out: Thioflavin T assay Ki, mean ± SD, at least three experiments, NB = no binding was measurable (concentrations up to 10 μM).
For `COc1cccc2ccc(/C=C/c3ccccc3)nc12` [Compound 4, (E)-8-Methoxy-2-styrylquinoline], the Ki is over 10 µM.

In the case of `COc1ccc2nc(-c3noc(-c4cccnc4)n3)ccc2c1` [Compound 26, 3-(6-Methoxyquinolin-2-yl)-5-(pyridin-3-yl)-1,2,4-oxadiazole], the Ki is over 10 µM.

Consider `CC(C)Oc1ccc2nc(-c3noc(-c4ccn5ccnc5c4)n3)ccc2c1` [Compound 32, 5-(Imidazo[1,2-a]pyridin-7-yl)-3-(6-isopropoxyquinolin-2-yl)-1,2,4-oxadiazole], for which the Ki was over 10 µM.

For `FCCOc1ccc2nc(-c3noc(-c4ccn5ccnc5c4)n3)ccc2c1` [Compound 33, 3-(6-(2-Fluoroethoxy)quinolin-2-yl)-5-(imidazo[1,2-a]pyridin-7-yl)-1,2,4-oxadiazole], the Ki is over 10 µM.

Turning to `COc1cc(/C=C/c2ccncc2)nc2ccccc12` [Compound 6, (E)-4-Methoxy-2-(2-(pyridin-4-yl)vinyl)quinolone], the Ki was over 10 µM.

For the compound `COc1ccc2ccc(/C=C/c3ccncc3)nc2c1` [Compound 9, (E)-7-Methoxy-2-(2-(pyridin-4-yl)vinyl)quinolone], the Ki was over 10 µM.

`COc1ccc2nc(/C=C/c3ccnc(OC)c3)ccc2c1` [Compound 13, (E)-6-Methoxy-2-(2-(2-methoxypyridin-4-yl)vinyl)quinolone]: the Ki amounted to 0.052 ± 0.021 µM.

`COc1cccc2ccc(/C=C/c3ccncc3)nc12` [Compound 10, (E)-8-Methoxy-2-(2-(pyridin-4-yl)vinyl)quinolone]: the Ki is over 10 µM.

As for `COc1ccc2nc(-c3noc(-c4ccn5ccnc5c4)n3)ccc2c1` [Compound 31, 5-(Imidazo[1,2-a]pyridin-7-yl)-3-(6-methoxyquinolin-2-yl)-1,2,4-oxadiazole], the Ki is over 10 µM.

Regarding `COc1ccc2nc(/C=C/c3ccnc(F)c3)ccc2c1` [Compound 11, (E)-2-(2-(2-Fluoropyridin-4-yl)vinyl)-6-methoxyquinoline], the Ki was over 10 µM.

With `COc1cc(-c2nc(-c3ccc4cc(OC(C)C)ccc4n3)no2)ccn1` [Compound 30, 3-(6-Isopropoxyquinolin-2-yl)-5-(2-methoxypyridin-4-yl)-1,2,4-oxadiazole], the Ki was over 10 µM.

On to `COc1cccc2nc(/C=C/c3ccncc3)ccc12` [Compound 7, (E)-5-Methoxy-2-(2-(pyridin-4-yl)vinyl)quinolone], for which the Ki was determined as 0.056 ± 0.04 µM.

As to `COCOc1ccc2nc(-c3noc(-c4ccn5ccnc5c4)n3)ccc2c1` [Compound 34, 5-(Imidazo[1,2-a]pyridin-7-yl)-3-(6-(methoxymethoxy)-quinolin-2-yl)-1,2,4-oxadiazole], the Ki is over 10 µM.

For `COc1ccc2nc(/C=C/c3ccncc3Cl)ccc2c1` [Compound 15, (E)-2-(2-(3-Chloropyridin-4-yl)vinyl)-6-methoxyquinoline], the Ki was over 10 µM.

For `COCOc1ccc2nc(-c3noc(-c4ccnc(OC)c4)n3)ccc2c1` [Compound 29, 3-(6-(Methoxymethoxy)quinolin-2-yl)-5-(2-methoxypyridin-4-yl)-1,2,4-oxadiazole], the Ki is over 10 µM.

As to `COc1cc2ccccc2nc1/C=C/c1ccncc1` [Compound 5, (E)-3-Methoxy-2-(2-(pyridin-4-yl)vinyl)quinolone], the Ki is over 10 µM.

Take `COc1ccc2nc(/C=C/c3ccncc3)ccc2c1` [Compound 8, (E)-6-Methoxy-2-(2-(pyridin-4-yl)vinyl)quinolone]: the Ki is 0.052 ± 0.038 µM.

Take `COc1cc(/C=C/c2ccc3cc(OCCF)ccc3n2)ccn1` [Compound 14, (E)-6-(2-Fluoroethoxy)-2-(2-(2-methoxypyridin-4-yl)vinyl)quinolone]: the Ki is 0.018 ± 0.001 µM.

Consider `COc1cccc2nc(/C=C/c3ccccc3)ccc12` [Compound 1, (E)-5-Methoxy-2-styrylquinoline], for which the Ki was over 10 µM.
